Results taken from ChEMBL document CHEMBL3526135, “Induction of xenobiotic receptors, transporters, and drug metabolizing enzymes by oxycodone” (Drug Metab Dispos, 2013).

Tests used:
Format in all cases: ADME, organism-based
Design in all cases: dose 15 mg/kg, route intraperitoneal
Slc25a15 = assay: Effect on Slc25a15 mRNA expression in Sprague-Dawley rat liver at 15 mg/kg, ip administered twice daily every 12 hrs for 8 days by microarray analysis relative to control; settings: read-out: FC
Slc1a2 = assay: Effect on Slc1a2 mRNA expression in Sprague-Dawley rat liver at 15 mg/kg, ip administered twice daily every 12 hrs for 8 days by microarray analysis relative to control; settings: read-out: FC
Ugt1a1 = assay: Effect on Ugt1a1 mRNA expression in Sprague-Dawley rat liver at 15 mg/kg, ip administered twice daily every 12 hrs for 8 days by microarray analysis relative to control; settings: read-out: FC
Rattus norvegicus [1] = assay: Effect on Slc22a8 mRNA expression in Sprague-Dawley rat liver at 15 mg/kg, ip administered twice daily every 12 hrs for 8 days by qRT-PCR analysis relative to control; settings: in vivo
Slc25a29 = assay: Effect on Slc25a29 mRNA expression in Sprague-Dawley rat liver at 15 mg/kg, ip administered twice daily every 12 hrs for 8 days by microarray analysis relative to control; settings: read-out: FC
Rattus norvegicus [2] = assay: Effect on Por mRNA expression in Sprague-Dawley rat liver at 15 mg/kg, ip administered twice daily every 12 hrs for 8 days by qRT-PCR analysis relative to control; settings: in vivo
Slc16a10 = assay: Effect on Slc16a10 mRNA expression in Sprague-Dawley rat liver at 15 mg/kg, ip administered twice daily every 12 hrs for 8 days by microarray analysis relative to control; settings: read-out: FC
Slc17a5 = assay: Effect on Slc17a5 mRNA expression in Sprague-Dawley rat liver at 15 mg/kg, ip administered twice daily every 12 hrs for 8 days by microarray analysis relative to control; settings: read-out: FC
Rattus norvegicus [3] = assay: Effect on Ces2 mRNA expression in Sprague-Dawley rat liver at 15 mg/kg, ip administered twice daily every 12 hrs for 8 days by qRT-PCR analysis relative to control; settings: in vivo
Abca8b = assay: Effect on Abca8b mRNA expression in Sprague-Dawley rat liver at 15 mg/kg, ip administered twice daily every 12 hrs for 8 days by microarray analysis relative to control; settings: read-out: FC
Rattus norvegicus [4] = assay: Effect on AhR mRNA expression in Sprague-Dawley rat liver at 15 mg/kg, ip administered twice daily every 12 hrs for 8 days by qRT-PCR analysis relative to control; settings: in vivo
CYP3a1 = assay: Effect on CYP3a1 mRNA expression in Sprague-Dawley rat liver at 15 mg/kg, ip administered twice daily every 12 hrs for 8 days by microarray analysis relative to control; settings: read-out: FC
Rattus norvegicus [5] = assay: Effect on CAR mRNA expression in Sprague-Dawley rat liver at 15 mg/kg, ip administered twice daily every 12 hrs for 8 days by qRT-PCR analysis relative to control; settings: in vivo
Abcb4 = assay: Effect on Abcb4 mRNA expression in Sprague-Dawley rat liver at 15 mg/kg, ip administered twice daily every 12 hrs for 8 days by microarray analysis relative to control; settings: read-out: FC
Slc37a4 = assay: Effect on Slc37a4 mRNA expression in Sprague-Dawley rat liver at 15 mg/kg, ip administered twice daily every 12 hrs for 8 days by microarray analysis relative to control; settings: read-out: FC
CYP2b2 [6] = assay: Effect on CYP2b2 mRNA expression in Sprague-Dawley rat liver at 15 mg/kg, ip administered twice daily every 12 hrs for 8 days by microarray analysis relative to control; settings: read-out: FC
Ces2 = assay: Effect on Ces2 mRNA expression in Sprague-Dawley rat liver at 15 mg/kg, ip administered twice daily every 12 hrs for 8 days by microarray analysis relative to control; settings: read-out: FC
Slc27a5 = assay: Effect on Slc27a5 mRNA expression in Sprague-Dawley rat liver at 15 mg/kg, ip administered twice daily every 12 hrs for 8 days by microarray analysis relative to control; settings: read-out: FC
CYP2b2 [7] = assay: Upregulation of CYP2b2 protein expression in Sprague-Dawley rat liver microsomes at 15 mg/kg, ip administered twice daily every 12 hrs for 8 days by Western blot analysis relative to control; settings: read-out: FC
Rattus norvegicus [8] = assay: Effect on CYP2d2 mRNA expression in Sprague-Dawley rat liver at 15 mg/kg, ip administered twice daily every 12 hrs for 8 days by qRT-PCR analysis relative to control; settings: in vivo
Slc22a5 = assay: Effect on Slc22a5 mRNA expression in Sprague-Dawley rat liver at 15 mg/kg, ip administered twice daily every 12 hrs for 8 days by microarray analysis relative to control; settings: read-out: FC

`COc1ccc2c3c1O[C@H]1C(=O)CC[C@@]4(O)[C@@H](C2)N(C)CC[C@]314.Cl` [OXYCODONE HYDROCHLORIDE] showed a fold induction at 8 days (Slc25a15) of 2.1, a fold induction at 8 days (Slc1a2) of 2.4 and a fold induction at 8 days (Ugt1a1) of 1.6. For the same molecule, the Activity (Rattus norvegicus [1]) was “Active”, the fold induction at 8 days (Slc25a29) was 1.5 and the Activity (Rattus norvegicus [2]) was “Active”. For the same molecule, the fold induction at 8 days (Slc16a10) was 3, the fold induction at 8 days (Slc17a5) was 1.5 and the Activity (Rattus norvegicus [3]) was “Active”. For the same molecule, the fold induction at 8 days (Abca8b) was 2.3, the Activity (Rattus norvegicus [4]) was “Active” and the fold induction at 8 days (CYP3a1) was 1.7. The Activity (Rattus norvegicus [5]) was “Active”, the fold induction at 8 days (Abcb4) was 1.5 and the fold induction at 8 days (Slc37a4) was 2. For the same molecule, the fold induction at 8 days (CYP2b2 [6]) was 6, the fold induction at 8 days (Ces2) was 2.8 and the fold induction at 8 days (Slc27a5) was 1.6. The fold induction at 8 days (CYP2b2 [7]) was 5, the Activity (Rattus norvegicus [8]) was “Active” and the fold induction at 8 days (Slc22a5) was 2.8.
